Source: US12433892B2, “Compositions and methods of treatment for neurological disorders comprising depression” (Gliapharm SA, priority 2018, dated 2025)
Structures can show the parent of a compound that is named as a salt.

Tests used:
C57Bl/6 female mice = conditions: 100 mg/kg single per os, 14 days monitoring
Experimental: The compound was administered at 10 mg/kg.
In vivo acute toxicity was assessed with a starting maximal concentration of 100 mg/kg. […] Groups of 6-8 female mice were monitored for 14 days after single oral administration of the drug, weighted every day, and a macroscopic histological examination was performed at the end of the experiment. Clinical evaluation included the observation of mice' ability to feed, hydrate, notification of any visible pain, unusual grooming or respiration, blood loss, evidence of microbial infection, and/or significant loss of weight.
For this period, mice were weighted and clinically monitored (feeding, hydration, pain, grooming, respiration, blood loss, microbial infection). At the end of the 14-day evaluation, mice were sacrificed and high level organ analysis was performed. Drugs were always administered per os (gavage) in solution composed of Methocel 4KM 0.4%, Tween 0.25%.

astrocytes [1] = assay: Intracellular glycogen quantification; assay type: cell-based, mouse; conditions: Prestwick hits; 10 uM, 3 h
Experimental: For glycogen dosage, a protein dosage was first performed in order to assess whether harvested astrocytes from primary cell cultures yielded enough and equivalent amounts of proteins comparing each replicate, and to ensure that the obtained differences in glycogen quantities were due to drug action and not to inner protein quantities.
Astrocytes used for these dosages were previously grown in 6-well plates for 17 days and stimulated with Vehicle (DMSO) or drug of interest (1 μM to 100 μM) for 180 min, at 37° C. 5% CO2/95% air in D5030 complete medium. Medium was removed and replaced with 600 μl of 30 mM Tris HCl, and stored at −20° C.
Proteins were dosed using the micro BCA Protein Assay kit (Thermo Scientific), as described in the manufacturer's instructions. Briefly, thawed cells were sonicated and 5 μl aliquots were placed in a transparent 96-well plate, to which we added 25 μl 30 mM Tris HCl, 70 μl H2O and 100 μl of a BCA mix (made as described in manufacturer's guidelines). After a 120 min-incubation at 37° C., absorbance was measured with Safire 2 spectrophotometer at a wavelength of 562 nm, and protein quantities were determined from a standard curve of Bovine Serum Albumin (BSA).
Glycogen was quantified using a 250 μl-aliquot of the same stimulated, thawed, and sonicated cells. After an incubation period of 30 min at 90° C. and 400 rpm, 28 μl of an acetic acid/sodium acetate (both from Sigma) 0.1M pH 4.6 buffer was added to each aliquot, which was then separated in two. Each split aliquot received whether 5 μl of amyloglucosidase (Roche) or 5 μl H2O, and all cell solutions were incubated for 120 min in a shaking 37° C.-waterbath. After a centrifugation at 16'000 G for 5 min, 20 μl of supernatant were placed 96-well plate, to which 150 μl of a mix containing 0.67 mM ATP (Roche), 0.67 mM NADP (Roche), 1.8% hexokinase/glucose-6-phosphate dehydrogenase (Roche) and 0.1M Tris Buffer-HCl/3.3 mM magnesium (Fluka)/pH 8.1 buffer was added. Fluorescence was measured with Safire 2 spectrophotometer (340 nm excitation/440 nm emission). Glycogen concentration was obtained by subtracting glucose value of samples with amyloglucosidase to samples without amyloglucosidase, and were expressed relative to the amount of proteins previously determined.
Levels of intracellular glycogen in astrocytes were measured at 3 h after stimulation with 20 hits from the Prestwick library (10 μM each), as shown in FIG. 2. n=6-10; Ctrl pos. is glutamate (0.5 mM). Statistical analysis consisted in ANOVA followed by Fisher LSD post-hoc test for pair-wise comparisons.
Statistical analysis consisted in ANOVA followed by Fisher LSD post-hoc test for pair-wise comparisons.

cerebral glycogen = assay: In vivo pharmacodynamics: glycogen levels in prefrontal cortex; parameters: species or system mouse; conditions: 10 mg/kg
Excerpt: To measure intracerebral levels of glycogen, mice were euthanized at different time points after drug administration, using a microwave beam (1 sec, 6 kW) focused directly on mice brains. This method of fixation results in the rapid inhibition of enzymatic reactions, thereby preserving intact metabolic state in the brain of euthanized animals. Glycogen concentration was quantified using standard biochemical procedure. Groups of 8 male mice were used for each condition.
Glycogen levels were measured in microwave-fixed PFC (prefrontal cortex, 6 kW, 1 sec), which ensures enzymatic inhibition and stops glycogen degradation. Samples were then flash frozen before dosage.
First, glycogen levels were analyzed at 1 h, 3 h and 6 h after drug administration. […] This time point was subsequently used for dose-response experiments. Glycogen levels were quantified at 3H after administration with GP-01 to GP-07 at 1, 10 or 100 mg/kg.

astrocytes [2] = assay: Intracellular glycogen quantification; assay type: cell-based, mouse; conditions: CDC54K hits; 10 uM, 3 h
primary astrocytes = assay: Intracellular glycogen quantification, Example 2; assay type: cell-based, mouse; conditions: 10 μM, 3 h (GP-0157: 0.1, 1, 10 μM)
Experimental: To assess for the effect of the compounds of the invention, those were tested in primary astrocytes, as described below. Secretion of lactate was measured directly in the extracellular medium, and indirectly through the acidification of extracellular medium using extracellular pH sensor SNARE-5F-(AND-6)-CAR (SNARF5). Glucose uptake was measured by quantification 2-deoxyglucose in the cell. Cell Cultures Primary cultures of cerebrocortical astrocytes were obtained from 1 to 2-day-old OF1 mouse pups (Charles River). Briefly, cortices were isolated and minced in small pieces under a dissecting microscope. The cells were incubated for 30 min at 37° C. in a solution containing 20 U/ml papain, 1 mM L-cysteine and 10 kU/ml DNase I. After dissociation, papain activity was stopped by the addition of fetal calf serum (FCS). Single-cell suspension was then obtained by mechanical dissociation, which consisted in cells trituration in a DMEM D7777 medium supplemented with 44 mm NaHCO3, 10 ml/L antibiotic/antimycotic solution and 10% FCS. The cells were seeded at an average density of ˜10'000 cells/cm2 on poly-D-lysine coated 96- or 12-well culture plates, depending on their use, and grown in DMEM D7777 medium supplemented with 44 mm NaHCO3, 10 ml/L antibiotic/antimycotic solution and 10% FCS at 37° C. in a humidified atmosphere containing 5% CO2/95% air. Culture medium was renewed twice a week. Cells were stimulated and harvested between DIV14 and DIV17, when confluence and cell growth were optimal. Extracellular Medium Acidification (SNARF5) Secretion of lactate was measured indirectly through the acidification of extracellular medium using extracellular pH sensor […] (SNARF5). After washing cells twice with stimulation medium (DMEM (D5030, Sigma), 1 mM NaHCO2, and 5 mM Glucose, pH 7.4) at 37° C., cells were stimulated with compounds at a final concentration ranging from 10 nM to 30 μM in 50 μl per well of stimulation medium supplemented with 10 μM of SNARF5 (Life Technologies Corporation). Each compound was tested in two different plates for duplicates. After 90 min stimulation, fluorescence was read at exc. (excitation) 480 nm/emm. (emission) 580 nm and at exc 480 nm/emm. 630 nm. The ratio of fluorescence between 630 nm and 580 emission values, which is proportional to extracellular pH, was calculated. In each plate, 8 wells were used for negative controls (DMSO 0.1%) and 8 wells were used for positive controls (CCCP 2 μM in DMSO). The extracellular medium acidification in primary mouse astrocytes treated with GP-A1 was quantified (FIG. 13). Extracellular medium acidification was measured over a period of 1.5 h and 3 h. […] Extracellular Lactate Quantification Secretion of L-lactate was measured in the extracellular medium of 96-well plated astrocytes after 90 min stimulation (at 37° C., in 5% CO2/95% air conditions) with Vehicle (DMSO), the compounds of the invention (100 nM to 100 μM) or positive control. […] Stimulation medium was composed of D5030 medium complemented with 5 mM D-glucose and 44 mM sodium bicarbonate, pH 7.2. To quantify lactate concentrations in the extracellular medium, 200 μl of a 0.2M Glycine-semicarbazide buffer (pH 10) containing 3 mM NAD and 14 U/ml LDH was added to each well of a 96-well plate containing 30 μl aliquots of extracellular medium. Samples were incubated at 37° C. for 1 h. Fluorescence intensity (340 nm excitation/450 nm emission), which represents the amount of NADH produced, was measured, and lactate concentration values were determined relative to a standard curve of L-lactate concentrations. The release of lactate from primary mouse astrocytes treated with GP-A1 was quantified (FIG. 5A and FIG. 14). Accumulation of lactate in the extracellular medium was measured over a period of 1.5 h. […] Intracellular Glycogen Quantification Astrocytes grown on 12-well plates were used for intracellular glycogen quantifications. […]

[3] = test system: cerebral extracellular lactate; assay: In vivo pharmacodynamics: lactate biosensors in cortex; parameters: species or system mouse; conditions: 10 mg/kg per os
Experimental: Extracellular levels of lactate were monitored in vivo using lactate biosensors (Pinnacle Technology), according to the manufacturer's instructions. Cannulae were surgically implanted in mice cerebral cerebral motor cortex areas M1/M2 (coordinates: +1.94 mm (to bregma), lateral −1.4 mm (to mideline), ventral −1.0 mm (to dura)) 5-7 days before administration of the compounds. Drugs were administered per os as previously described, and cerebral levels of extracellular lactate were dynamically recorded for 6 hours. Mice were administered vehicle alone first, followed 3 hours later by vehicle or drug (10 or 100 mg/kg). Area Under the Curve (AUC) quantifying the fluctuations of extracellular lactate concentrations for each of the compound tested was calculated using Graphad Prism and the ratio of AUC after drug over Vehicle administration was calculated. Groups of 8 male mice were used for each condition.
To measure biological effect of lead molecules in vivo in the brain, lactate levels were quantified after administration of the drug by using lactate biosensors implanted in the cortex of freely moving mice.

[4] = test system: C57Bl/6 male and female mice; assay: In vivo chronic toxicity (28 days); conditions: chronic administration 10 mg/kg; treatment interrupted
Experimental: During this period, clinical symptoms and weight were recorded.
Chronic toxicity was assessed.

[5] = test system: C57Bl/6 male and female mice; assay: Anxiety in elevated plus maze (EPM) after chronic treatment; assay type: in vivo, mouse; conditions: end of 28-day chronic treatment, 10 mg/kg
Experimental: Total distance, frequency of entry and duration in the open arms were measured using Ethovision automatic scoring; n>10;

Question: For `[H]/N=C(\N/C(=N/[H])Nc1ccc(Cl)cc1)NC(C)C` [Proguanil hydrochloride], which “acute toxicity (toxic or not)” value (C57Bl/6 female mice) is on record?
Answer: toxic

Question: What about the “Glycogen (statistical significance of glycogen degradation)” value (astrocytes [1]) of the same compound?
Answer: *** (***p<0.001)

Question: What about the PD effect (cerebral glycogen) of the same compound?
Answer: did not show good PD effect

Question: `O=S(=O)(Nc1cc(F)cc(F)c1)c1ccc2ccccc2c1` [T5884038] was tested. Which “Glycogen (statistical significance of glycogen degradation)” value (astrocytes [2]) did it give?
Answer: **** (****p<0.0001)

Question: What about the “mobilization of intracellular glycogen” value (primary astrocytes) of the same compound?
Answer: significantly enhance the mobilization of intracellular glycogen

Question: Which “cerebral lactate (AUC ratio vs vehicle)” value [3] does the source give for `C#C[C@]1(O)CC[C@H]2[C@@H]3[C@H](C)CC4=C(CCC(=O)C4)[C@H]3CC[C@@]21C` [Tibolone] here?
Answer: Significant increase

Question: What about the weight loss [4] of the same compound?
Answer: > 20%

Question: What about the “Glycogen (statistical significance of glycogen degradation)” value (astrocytes [1]) of the same compound?
Answer: *** (***p<0.001)

Question: And the “anxiety in EPM” value [5]?
Answer: increased anxiety
